Key:
Assay in all cases: cell-based
hNav1.7 = hNav1.7 (Homo sapiens, UniProt Q15858); format: cell-based; settings: PatchXpress, tonic block; read-out: PX hNav1.7 Tonic IC50
hNav1.5 = hNav1.5 (Homo sapiens, UniProt Q14524); settings: PatchXpress, tonic block; read-out: PX hNav1.5 Tonic IC50
hNav1.4 = hNav1.4 (Homo sapiens, UniProt P35499); settings: for IC50: PatchXpress, tonic block, read-out: PX hNav1.4 Tonic IC50; for Nav1.4/Nav1.7: ratio of PX tonic IC50 values

hNav1.5, sequence (Q14524 whole entry): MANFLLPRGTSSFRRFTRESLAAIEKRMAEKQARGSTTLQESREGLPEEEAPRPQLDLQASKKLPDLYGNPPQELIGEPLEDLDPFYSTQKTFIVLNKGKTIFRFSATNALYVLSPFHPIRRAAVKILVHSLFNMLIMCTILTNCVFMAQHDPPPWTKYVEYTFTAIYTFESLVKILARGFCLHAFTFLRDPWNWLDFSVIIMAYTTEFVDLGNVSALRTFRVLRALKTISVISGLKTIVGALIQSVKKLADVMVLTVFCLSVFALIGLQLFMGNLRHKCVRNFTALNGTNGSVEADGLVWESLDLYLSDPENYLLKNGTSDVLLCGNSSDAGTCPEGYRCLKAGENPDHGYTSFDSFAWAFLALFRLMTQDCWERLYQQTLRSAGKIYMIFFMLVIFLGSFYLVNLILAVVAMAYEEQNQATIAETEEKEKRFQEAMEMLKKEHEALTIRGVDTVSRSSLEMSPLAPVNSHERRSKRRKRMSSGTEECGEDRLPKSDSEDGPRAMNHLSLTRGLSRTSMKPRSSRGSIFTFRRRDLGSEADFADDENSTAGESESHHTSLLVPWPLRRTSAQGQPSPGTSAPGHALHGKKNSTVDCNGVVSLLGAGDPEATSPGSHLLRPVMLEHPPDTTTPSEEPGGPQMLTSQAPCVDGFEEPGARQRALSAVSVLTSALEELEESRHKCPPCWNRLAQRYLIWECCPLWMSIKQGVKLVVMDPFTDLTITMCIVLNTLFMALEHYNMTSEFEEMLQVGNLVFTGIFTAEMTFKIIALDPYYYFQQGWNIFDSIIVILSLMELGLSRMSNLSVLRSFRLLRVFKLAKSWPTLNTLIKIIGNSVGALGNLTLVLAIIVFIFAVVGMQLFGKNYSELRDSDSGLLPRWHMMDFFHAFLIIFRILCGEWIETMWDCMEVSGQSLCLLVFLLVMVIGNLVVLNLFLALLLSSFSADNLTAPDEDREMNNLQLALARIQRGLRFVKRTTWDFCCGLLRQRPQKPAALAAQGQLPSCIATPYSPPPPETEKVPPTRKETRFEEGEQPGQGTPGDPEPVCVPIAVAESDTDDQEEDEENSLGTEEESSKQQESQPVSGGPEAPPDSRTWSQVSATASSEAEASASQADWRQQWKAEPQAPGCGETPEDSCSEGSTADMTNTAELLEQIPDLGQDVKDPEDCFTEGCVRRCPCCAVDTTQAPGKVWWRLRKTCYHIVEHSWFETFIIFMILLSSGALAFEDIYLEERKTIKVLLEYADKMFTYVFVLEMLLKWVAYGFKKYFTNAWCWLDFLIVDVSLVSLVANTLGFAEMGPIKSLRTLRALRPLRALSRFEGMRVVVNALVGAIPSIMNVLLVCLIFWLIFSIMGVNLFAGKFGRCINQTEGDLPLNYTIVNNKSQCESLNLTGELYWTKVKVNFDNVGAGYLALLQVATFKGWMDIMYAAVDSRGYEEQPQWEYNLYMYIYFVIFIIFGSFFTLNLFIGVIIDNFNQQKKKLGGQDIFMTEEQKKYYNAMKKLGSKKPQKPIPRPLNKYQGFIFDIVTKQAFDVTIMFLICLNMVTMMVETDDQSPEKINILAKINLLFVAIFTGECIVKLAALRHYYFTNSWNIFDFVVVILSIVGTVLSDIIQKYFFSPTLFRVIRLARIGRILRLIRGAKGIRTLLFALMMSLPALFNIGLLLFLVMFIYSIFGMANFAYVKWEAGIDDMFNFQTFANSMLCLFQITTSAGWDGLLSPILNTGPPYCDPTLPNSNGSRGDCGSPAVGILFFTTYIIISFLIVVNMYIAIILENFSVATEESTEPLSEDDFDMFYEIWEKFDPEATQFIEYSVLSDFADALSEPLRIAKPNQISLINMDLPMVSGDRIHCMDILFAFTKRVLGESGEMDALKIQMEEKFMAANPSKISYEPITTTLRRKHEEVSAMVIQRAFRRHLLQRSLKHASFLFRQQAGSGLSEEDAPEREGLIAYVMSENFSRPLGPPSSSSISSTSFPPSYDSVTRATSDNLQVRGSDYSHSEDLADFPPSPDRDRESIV
hNav1.7, sequence (Q15858 whole entry): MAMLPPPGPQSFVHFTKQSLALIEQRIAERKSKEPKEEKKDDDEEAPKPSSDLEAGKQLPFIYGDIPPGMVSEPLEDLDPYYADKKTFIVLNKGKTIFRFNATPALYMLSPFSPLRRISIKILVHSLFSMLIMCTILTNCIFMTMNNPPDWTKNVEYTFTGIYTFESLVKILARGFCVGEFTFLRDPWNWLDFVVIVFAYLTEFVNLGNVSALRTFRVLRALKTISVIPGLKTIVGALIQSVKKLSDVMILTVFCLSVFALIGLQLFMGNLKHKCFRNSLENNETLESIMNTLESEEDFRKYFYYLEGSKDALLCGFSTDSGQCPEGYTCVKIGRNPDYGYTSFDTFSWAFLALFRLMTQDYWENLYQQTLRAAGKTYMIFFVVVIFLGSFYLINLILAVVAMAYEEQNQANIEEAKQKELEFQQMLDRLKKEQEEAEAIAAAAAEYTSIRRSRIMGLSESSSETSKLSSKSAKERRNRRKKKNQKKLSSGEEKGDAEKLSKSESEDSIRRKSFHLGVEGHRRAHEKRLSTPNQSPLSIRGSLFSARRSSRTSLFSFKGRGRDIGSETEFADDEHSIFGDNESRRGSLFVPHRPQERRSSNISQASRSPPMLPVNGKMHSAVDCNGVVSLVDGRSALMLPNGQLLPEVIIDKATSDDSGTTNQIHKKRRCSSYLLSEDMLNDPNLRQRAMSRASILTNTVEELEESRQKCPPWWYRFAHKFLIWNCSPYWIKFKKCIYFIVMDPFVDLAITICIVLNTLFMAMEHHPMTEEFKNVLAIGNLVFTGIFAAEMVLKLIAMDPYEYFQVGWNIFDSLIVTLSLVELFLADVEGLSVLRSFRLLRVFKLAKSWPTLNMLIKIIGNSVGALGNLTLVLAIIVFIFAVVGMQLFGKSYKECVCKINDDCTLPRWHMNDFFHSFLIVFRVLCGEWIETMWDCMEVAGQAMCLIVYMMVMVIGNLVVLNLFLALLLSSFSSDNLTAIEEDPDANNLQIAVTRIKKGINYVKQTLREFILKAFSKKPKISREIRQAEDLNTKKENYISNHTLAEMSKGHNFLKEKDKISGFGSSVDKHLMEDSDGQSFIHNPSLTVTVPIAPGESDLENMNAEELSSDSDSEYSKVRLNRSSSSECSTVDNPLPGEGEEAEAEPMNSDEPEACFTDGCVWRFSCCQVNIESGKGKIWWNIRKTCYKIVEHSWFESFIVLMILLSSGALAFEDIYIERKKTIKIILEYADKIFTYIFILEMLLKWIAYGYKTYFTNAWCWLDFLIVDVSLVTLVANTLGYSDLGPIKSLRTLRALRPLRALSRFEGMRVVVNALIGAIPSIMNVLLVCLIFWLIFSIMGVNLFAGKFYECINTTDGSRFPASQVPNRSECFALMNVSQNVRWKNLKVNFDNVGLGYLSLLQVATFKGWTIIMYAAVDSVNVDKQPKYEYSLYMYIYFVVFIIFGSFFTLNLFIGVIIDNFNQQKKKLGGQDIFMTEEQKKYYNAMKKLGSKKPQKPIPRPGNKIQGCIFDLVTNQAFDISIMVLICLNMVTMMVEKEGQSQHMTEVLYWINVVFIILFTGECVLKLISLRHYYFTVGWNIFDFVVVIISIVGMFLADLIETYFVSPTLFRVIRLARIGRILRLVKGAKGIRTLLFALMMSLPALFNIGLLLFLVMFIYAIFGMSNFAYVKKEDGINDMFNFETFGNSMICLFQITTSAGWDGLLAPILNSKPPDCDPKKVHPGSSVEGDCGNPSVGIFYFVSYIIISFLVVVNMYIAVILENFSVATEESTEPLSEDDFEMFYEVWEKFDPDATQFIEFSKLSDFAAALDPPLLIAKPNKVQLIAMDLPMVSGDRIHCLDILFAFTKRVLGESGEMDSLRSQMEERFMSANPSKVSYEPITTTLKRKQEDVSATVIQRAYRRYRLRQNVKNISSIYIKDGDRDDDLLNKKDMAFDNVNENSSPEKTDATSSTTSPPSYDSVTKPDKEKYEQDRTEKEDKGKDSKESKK

Structure (SMILES) | IC50 (hNav1.7) | IC50 (hNav1.5) | IC50 (hNav1.4) | Nav1.4/Nav1.7 (hNav1.4)
C#CC[C@@H]1NC(=O)[C@H](CC(=O)O)NC(=O)[C@@H]2CSSC[C@@H]3NC(=O)[C@H](CCC(=O)O)NC(=O)[C@H](CC(C)C)NC(=O)CNC(=O)[C@H](CCC(=O)O)NC(=O)[C@H](CSSC[C@H](NC(=O)[C@@H](N)Cc4ccc(O)cc4)C(=O)N[C@@H](CCC(N)=O)C(=O)N[C@@H](CCCCN)C(=O)N[C@@H](Cc4c[nH]c5ccccc45)C(=O)N[C@@H](CCCC)C(=O)N[C@@H](Cc4c[nH]c5ccccc45)C(=O)N[C@@H]([C@@H](C)O)C(=O)N2)NC(=O)[C@H](CSSC[C@@H](C(=O)N[C@@H](CCCNC(=N)N)C(=O)N[C@@H](CCCCN)C(=O)N[C@@H](Cc2ccc(O)cc2)C(=O)N[C@H](C(N)=O)[C@@H](C)CC)NC(=O)[C@H](Cc2c[nH]c4ccccc24)NC(=O)[C@H](CC(C)C)NC(=O)[C@H](CCCCN)NC3=O)NC(=O)[C@H](C)NC(=O)[C@H](CCCNC(=N)N)NC(=O)[C@H](CCCCN)NC1=O [compound 315] | 1.28 nM | 2460 nM | 825 nM | –
C#CC[C@@H]1NC(=O)[C@H](CCCNC(=N)N)NC(=O)[C@H](CCCCN)NC(=O)[C@H](CO)NC(=O)[C@H](CC(=O)O)NC(=O)[C@@H]2CSSC[C@@H]3NC(=O)[C@H](CCC(=O)O)NC(=O)[C@H](CC(C)C)NC(=O)CNC(=O)[C@H](CCC(=O)O)NC(=O)[C@H](CSSC[C@H](NC(=O)[C@@H](N)Cc4ccc(O)cc4)C(=O)N[C@@H](CCC(N)=O)C(=O)N[C@@H](CCCCN)C(=O)N[C@@H](Cc4c[nH]c5ccccc45)C(=O)N[C@@H](CCCC)C(=O)N[C@@H](Cc4c[nH]c5ccccc45)C(=O)N[C@@H]([C@@H](C)O)C(=O)N2)NC(=O)[C@H](CSSC[C@@H](C(=O)N[C@@H](CCCNC(=N)N)C(=O)N[C@@H](CCCCN)C(=O)N[C@@H](Cc2ccc(O)cc2)C(=O)N[C@H](C(N)=O)[C@@H](C)CC)NC(=O)[C@H](Cc2c[nH]c4ccccc24)NC(=O)[C@H](CC(C)C)NC(=O)[C@H](CCCCN)NC3=O)NC1=O [compound 316] | 1.76 nM | 3690 nM | 707 nM | –
C#CC[C@@H]1NC(=O)[C@@H]2CSSC[C@H](NC(=O)[C@@H](N)Cc3ccc(O)cc3)C(=O)N[C@@H](CCC(N)=O)C(=O)N[C@@H](CCCCN)C(=O)N[C@@H](Cc3c[nH]c4ccccc34)C(=O)N[C@@H](CCCC)C(=O)N[C@@H](Cc3c[nH]c4ccccc34)C(=O)N[C@@H]([C@@H](C)O)C(=O)N[C@H]3CSSC[C@H](NC(=O)[C@H](CCC(=O)O)NC(=O)[C@H](CC(C)C)NC(=O)CNC1=O)C(=O)N[C@@H](CCCCN)C(=O)N[C@@H](CC(C)C)C(=O)N[C@@H](Cc1c[nH]c4ccccc14)C(=O)N[C@H](C(=O)N[C@@H](CCCNC(=N)N)C(=O)N[C@@H](CCCCN)C(=O)N[C@@H](Cc1ccc(O)cc1)C(=O)N[C@H](C(N)=O)[C@@H](C)CC)CSSC[C@H](NC(=O)[C@H](C)NC(=O)[C@H](CCCNC(=N)N)NC(=O)[C@H](CCCCN)NC(=O)[C@H](CO)NC(=O)[C@H](CC(=O)O)NC3=O)C(=O)N2 [compound 317] | 3.8 nM | 3520 nM | 614 nM | –
C#CC[C@H](N)C(=O)N[C@@H](Cc1ccc(O)cc1)C(=O)N[C@H]1CSSC[C@@H]2NC(=O)[C@@H]3CSSC[C@@H](C(=O)N[C@@H](CCCNC(=N)N)C(=O)N[C@@H](CCCCN)C(=O)N[C@@H](CCC(=O)O)C(=O)N[C@H](C(N)=O)[C@@H](C)CC)NC(=O)[C@H](Cc4c[nH]c5ccccc45)NC(=O)[C@H](CC(C)C)NC(=O)[C@H](CCCCN)NC(=O)[C@H](CSSC[C@H](NC(=O)[C@H]([C@@H](C)O)NC(=O)[C@H](Cc4c[nH]c5ccccc45)NC(=O)[C@H](CCCC)NC(=O)[C@H](Cc4c[nH]c5ccccc45)NC(=O)[C@H](CCCCN)NC(=O)[C@H](CCC(N)=O)NC1=O)C(=O)N[C@@H](CC(=O)O)C(=O)N[C@@H](CO)C(=O)N[C@@H](CCCCN)C(=O)N[C@@H](CCCNC(=N)N)C(=O)N[C@@H](C)C(=O)N3)NC(=O)[C@H](CCCNC(=N)N)NC(=O)[C@H](CC(C)C)NC(=O)CNC(=O)[C@H](CCC(=O)O)NC2=O [compound 328] | 0.515 nM | 3020 nM | 130 nM | –
C#CC[C@H](N)C(=O)N[C@H]1CSSC[C@@H]2NC(=O)[C@@H]3CSSC[C@@H](C(=O)N[C@@H](CCCNC(=N)N)C(=O)N[C@@H](CCCCN)C(=O)N[C@@H](CCC(=O)O)C(=O)N[C@H](C(N)=O)[C@@H](C)CC)NC(=O)[C@H](Cc4c[nH]c5ccccc45)NC(=O)[C@H](CC(C)C)NC(=O)[C@H](CCCCN)NC(=O)[C@H](CSSC[C@H](NC(=O)[C@H]([C@@H](C)O)NC(=O)[C@H](Cc4c[nH]c5ccccc45)NC(=O)[C@H](CCCC)NC(=O)[C@H](Cc4c[nH]c5ccccc45)NC(=O)[C@H](CCCCN)NC(=O)[C@H](CCC(N)=O)NC1=O)C(=O)N[C@@H](CC(=O)O)C(=O)N[C@@H](CO)C(=O)N[C@@H](CCCCN)C(=O)N[C@@H](CCCNC(=N)N)C(=O)N[C@@H](C)C(=O)N3)NC(=O)[C@H](CCCNC(=N)N)NC(=O)[C@H](CC(C)C)NC(=O)CNC(=O)[C@H](CCC(=O)O)NC2=O [compound 329] | 0.269 nM | 4620 nM | 149 nM | –
C#CC[C@@H]1NC(=O)[C@H](CC(=O)O)NC(=O)[C@@H]2CSSC[C@@H]3NC(=O)[C@H](CCCNC(=N)N)NC(=O)[C@H](CC(C)C)NC(=O)CNC(=O)[C@H](CCC(=O)O)NC(=O)[C@H](CSSC[C@H](NC(=O)[C@@H](N)Cc4ccc(O)cc4)C(=O)N[C@@H](CCC(N)=O)C(=O)N[C@@H](CCCCN)C(=O)N[C@@H](Cc4c[nH]c5ccccc45)C(=O)N[C@@H](CCCC)C(=O)N[C@@H](Cc4c[nH]c5ccccc45)C(=O)N[C@@H]([C@@H](C)O)C(=O)N2)NC(=O)[C@H](CSSC[C@@H](C(=O)N[C@@H](CCCNC(=N)N)C(=O)N[C@@H](CCCCN)C(=O)N[C@@H](CCC(=O)O)C(=O)N[C@H](C(N)=O)[C@@H](C)CC)NC(=O)[C@H](Cc2c[nH]c4ccccc24)NC(=O)[C@H](CC(C)C)NC(=O)[C@H](CCCCN)NC3=O)NC(=O)[C@H](C)NC(=O)[C@H](CCCNC(=N)N)NC(=O)[C@H](CCCCN)NC1=O [compound 330] | 0.763 nM | 5980 nM | 222 nM | –
C#CC[C@@H]1NC(=O)[C@H](CCCNC(=N)N)NC(=O)[C@H](CCCCN)NC(=O)[C@H](CO)NC(=O)[C@H](CC(=O)O)NC(=O)[C@@H]2CSSC[C@@H]3NC(=O)[C@H](CCCNC(=N)N)NC(=O)[C@H](CC(C)C)NC(=O)CNC(=O)[C@H](CCC(=O)O)NC(=O)[C@H](CSSC[C@H](NC(=O)[C@@H](N)Cc4ccc(O)cc4)C(=O)N[C@@H](CCC(N)=O)C(=O)N[C@@H](CCCCN)C(=O)N[C@@H](Cc4c[nH]c5ccccc45)C(=O)N[C@@H](CCCC)C(=O)N[C@@H](Cc4c[nH]c5ccccc45)C(=O)N[C@@H]([C@@H](C)O)C(=O)N2)NC(=O)[C@H](CSSC[C@@H](C(=O)N[C@@H](CCCNC(=N)N)C(=O)N[C@@H](CCCCN)C(=O)N[C@@H](CCC(=O)O)C(=O)N[C@H](C(N)=O)[C@@H](C)CC)NC(=O)[C@H](Cc2c[nH]c4ccccc24)NC(=O)[C@H](CC(C)C)NC(=O)[C@H](CCCCN)NC3=O)NC1=O [compound 331] | 0.493 nM | 3510 nM | 105 nM | –
C#CC[C@@H]1NC(=O)[C@@H]2CSSC[C@H](NC(=O)[C@@H](N)Cc3ccc(O)cc3)C(=O)N[C@@H](CCC(N)=O)C(=O)N[C@@H](CCCCN)C(=O)N[C@@H](Cc3c[nH]c4ccccc34)C(=O)N[C@@H](CCCC)C(=O)N[C@@H](Cc3c[nH]c4ccccc34)C(=O)N[C@@H]([C@@H](C)O)C(=O)N[C@H]3CSSC[C@H](NC(=O)[C@H](CCCNC(=N)N)NC(=O)[C@H](CC(C)C)NC(=O)CNC1=O)C(=O)N[C@@H](CCCCN)C(=O)N[C@@H](CC(C)C)C(=O)N[C@@H](Cc1c[nH]c4ccccc14)C(=O)N[C@H](C(=O)N[C@@H](CCCNC(=N)N)C(=O)N[C@@H](CCCCN)C(=O)N[C@@H](CCC(=O)O)C(=O)N[C@H](C(N)=O)[C@@H](C)CC)CSSC[C@H](NC(=O)[C@H](C)NC(=O)[C@H](CCCNC(=N)N)NC(=O)[C@H](CCCCN)NC(=O)[C@H](CO)NC(=O)[C@H](CC(=O)O)NC3=O)C(=O)N2 [compound 332] | 3.63 nM | 3080 nM | 125 nM | 34
C#CC[C@H](N)C(=O)N[C@H]1CSSC[C@@H]2NC(=O)[C@@H]3CSSC[C@@H](C(=O)N[C@@H](CCCNC(=N)N)C(=O)N[C@@H](CCCCN)C(=O)N[C@H](C(=O)N[C@H](C(N)=O)[C@@H](C)CC)[C@@H](C)CC)NC(=O)[C@H](Cc4c[nH]c5ccccc45)NC(=O)[C@H](CC(C)C)NC(=O)[C@H](CCCCN)NC(=O)[C@H](CSSC[C@H](NC(=O)[C@H]([C@@H](C)O)NC(=O)[C@H](Cc4c[nH]c5ccccc45)NC(=O)[C@H](CCCC)NC(=O)[C@H](Cc4c[nH]c5ccccc45)NC(=O)[C@H](CCCCN)NC(=O)[C@H](CCC(N)=O)NC1=O)C(=O)N[C@@H](CC(=O)O)C(=O)N[C@@H](CO)C(=O)N[C@@H](CCCCN)C(=O)N[C@@H](CCCNC(=N)N)C(=O)N[C@@H](C)C(=O)N3)NC(=O)[C@H](CCC(=O)O)NC(=O)[C@H](CC(C)C)NC(=O)CNC(=O)[C@H](CCC(=O)O)NC2=O [compound 343] | 2.63 nM | 2660 nM | 790 nM | 300
C#CC[C@@H]1NC(=O)[C@H](CC(=O)O)NC(=O)[C@@H]2CSSC[C@@H]3NC(=O)[C@H](CCC(=O)O)NC(=O)[C@H](CC(C)C)NC(=O)CNC(=O)[C@H](CCC(=O)O)NC(=O)[C@H](CSSC[C@H](NC(=O)[C@@H](N)Cc4ccc(O)cc4)C(=O)N[C@@H](CCC(N)=O)C(=O)N[C@@H](CCCCN)C(=O)N[C@@H](Cc4c[nH]c5ccccc45)C(=O)N[C@@H](CCCC)C(=O)N[C@@H](Cc4c[nH]c5ccccc45)C(=O)N[C@@H]([C@@H](C)O)C(=O)N2)NC(=O)[C@H](CSSC[C@@H](C(=O)N[C@@H](CCCNC(=N)N)C(=O)N[C@@H](CCCCN)C(=O)N[C@H](C(=O)N[C@H](C(N)=O)[C@@H](C)CC)[C@@H](C)CC)NC(=O)[C@H](Cc2c[nH]c4ccccc24)NC(=O)[C@H](CC(C)C)NC(=O)[C@H](CCCCN)NC3=O)NC(=O)[C@H](C)NC(=O)[C@H](CCCNC(=N)N)NC(=O)[C@H](CCCCN)NC1=O [compound 344] | 18.4 nM | 3550 nM | 4220 nM | 230

From US9636418B2 (priority 2013, dated 2017)
